As a reminder, the EC50 is the concentration at which the effect is half-maximal.

This test deals with Sphingosine 1-phosphate receptor 3 (Homo sapiens, UniProt Q99500). Briefly: S1P3 receptor activation, EC50 – cell-based, NFAT-BLA reporter, dose response (AID 439).
The mark [1] stands for this setting: inactive by the depositor's call.

Chain of Sphingosine 1-phosphate receptor 3 (Q99500 whole entry): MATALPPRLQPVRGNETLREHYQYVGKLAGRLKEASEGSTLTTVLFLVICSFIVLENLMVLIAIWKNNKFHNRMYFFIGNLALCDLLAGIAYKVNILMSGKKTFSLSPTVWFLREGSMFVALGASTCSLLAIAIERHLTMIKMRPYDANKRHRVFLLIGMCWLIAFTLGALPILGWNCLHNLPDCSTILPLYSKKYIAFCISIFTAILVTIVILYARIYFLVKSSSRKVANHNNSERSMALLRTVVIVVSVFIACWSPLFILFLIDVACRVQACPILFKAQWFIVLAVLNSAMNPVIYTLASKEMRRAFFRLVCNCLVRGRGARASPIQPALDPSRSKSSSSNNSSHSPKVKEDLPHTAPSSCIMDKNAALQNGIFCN

Under setting [1], `CCCn1c(=O)c2ccccc2n2c(SCc3c(C(=O)OCC)oc4ccccc34)nnc12` [3-[[(5-keto-4-propyl-[1,2,4]triazolo[4,3-a]quinazolin-1-yl)thio]methyl]coumarilic acid ethyl ester] came in with an EC50 of 23.5 µM. This lies in the double-digit micromolar range.
Consider `c1ccc(-c2nnc(N3CCOCC3)nc2-c2ccccc2)cc1` [4-(5,6-diphenyl-1,2,4-triazin-3-yl)morpholine], for which the EC50 was determined as 6.63 µM.
On the same count and under the same terms, for `CCOC(=O)N1CCN(C(=O)c2nn(-c3cc(OC)cc(OC)c3)c(=O)c3ccccc23)CC1` [4-[3-(3,5-dimethoxyphenyl)-4-keto-phthalazine-1-carbonyl]piperazine-1-carboxylic acid ethyl ester] the value was above 45 µM.
On the same count and under the same terms, for `CC(=O)Oc1ccc2cc(-c3nc4ccccc4n3C)c(=O)oc2c1` the value was 6.42 µM; for `Cc1ccc(-n2c(=O)[nH]cc(C(=O)Nc3ccc4c(c3)OCCO4)c2=O)cc1C` [N-(2,3-dihydro-1,4-benzodioxin-6-yl)-3-(3,4-dimethylphenyl)-2,4-bis(oxidanylidene)-1H-pyrimidine-5-carboxamide], above 45 µM.
For `CC(C)Cn1c(N)c(C(=O)NCc2cccs2)c2nc3ccccc3nc21` [SMR000043082], under setting [1], the EC50 is 29.7 µM.
The same measure, in the same setting: for `CCSc1nc(N2CCOCC2)c2c(c1C#N)CCCC2` [3-(ethylthio)-1-(4-morpholinyl)-5,6,7,8-tetrahydroisoquinoline-4-carbonitrile] the value was 14.5 µM; for `CCCCCCn1c(N)c(C(=O)NCCN2CCOCC2)c2nc3ccccc3nc21` [2-amino-1-hexyl-N-(2-morpholin-4-ylethyl)pyrrolo[3,2-b]quinoxaline-3-carboxamide], 42.3 µM.
As for `Clc1ccc2nc(N3CCNCC3)nc(-c3ccccc3)c2c1`, the EC50 is above 45 µM.
On the same count and under the same terms, for `O=C(OCCN1C(=O)c2ccccc2C1=O)c1cccc(OC(F)F)c1` [2-(1,3-dioxoisoindol-2-yl)ethyl 3-(difluoromethoxy)benzoate] the value was above 45 µM.
In turn, `Cc1cc(-n2c(=O)c(C#N)cc3c(=O)n4ccccc4nc32)no1` yielded an EC50 under setting [1] of 26.4 µM.
On the same count and under the same terms, with `COc1ccc(Nc2nc(Nc3ccc(OC)cc3)nc(-n3[nH]c(=O)c(C)c3C)n2)cc1` [2-[4,6-bis(4-methoxyanilino)-1,3,5-triazin-2-yl]-3,4-dimethyl-1H-pyrazol-5-one] the figure was 14.7 µM; with `Cc1onc(-c2c(Cl)cccc2Cl)c1C(=O)N1CCc2ccccc21` [[3-(2,6-dichlorophenyl)-5-methyl-1,2-oxazol-4-yl]-(2,3-dihydroindol-1-yl)methanone], 30.8 µM.
The same measure, in the same setting: for `N=c1c(C(=O)NCc2ccco2)cc2c(=O)n3ccccc3nc2n1Cc1ccc(Cl)cc1` [SMR000047818] the value was 63.9 µM; for `O=C(NC1=NCCS1)c1cc(-c2ccccc2)nn1-c1ccccc1`, 41.7 µM; for `O=C(Oc1ccc(-c2nnco2)cc1)N(c1ccccc1)c1ccccc1` [4-(1,3,4-oxadiazol-2-yl)phenyl diphenylcarbamate], 14.1 µM.
In the case of `Cc1cc(C(=O)N(C2CCCCC2)C2CCCCC2)no1` [MLS000087301], the EC50 was found to be 25.6 µM.
Same read-out and setting: for `Cc1cc(C)n(-c2nc(NCCCO)c3c4c(sc3n2)CCCC4)n1` [3-[[2-(3,5-dimethyl-1-pyrazolyl)-5,6,7,8-tetrahydro-[1]benzothiolo[2,3-d]pyrimidin-4-yl]amino]-1-propanol] the value was 4.28 µM.
Regarding `OCCN1CCN(c2nc(-c3ccccc3)c3cc(Cl)ccc3n2)CC1` [2-[4-(6-chloranyl-4-phenyl-quinazolin-2-yl)piperazin-1-yl]ethanol], the response under setting [1] was half-maximal at 108 µM (EC50).
The same measure, in the same setting: with `COc1ccc(CCn2c(N)c(C(=O)NCc3ccco3)c3nc4ccccc4nc32)cc1OC` [2-amino-1-[2-(3,4-dimethoxyphenyl)ethyl]-N-(2-furanylmethyl)-3-pyrrolo[3,2-b]quinoxalinecarboxamide] the figure was 45 µM.
The molecule `CCOC(=O)C1C(=N)OC2=C(C(=O)CCC2)C1c1ccccc1OCC` (stereo not given) [2-amino-4-(2-ethoxyphenyl)-5-oxo-4,6,7,8-tetrahydro-1-benzopyran-3-carboxylic acid ethyl ester] displayed an EC50 of 18.5 µM.
Under setting [1], `Nc1c(C(=O)NCc2ccc3c(c2)OCO3)c2nc3ccccc3nc2n1CCCN1CCOCC1` [2-amino-N-(1,3-benzodioxol-5-ylmethyl)-1-(3-morpholin-4-ylpropyl)pyrrolo[3,2-b]quinoxaline-3-carboxamide] gave an EC50 of 19.1 µM.
Same read-out and setting: with `COc1ccccc1Oc1cc(C#N)c(C#N)cc1-n1nnc2ccccc21` [4-(1-benzotriazolyl)-5-(2-methoxyphenoxy)benzene-1,2-dicarbonitrile] the figure was 17.2 µM; with `Nc1c(C(=O)NCCc2ccccc2)c2nc3ccccc3nc2n1CCN1CCOCC1` [2-amino-1-(2-morpholin-4-ylethyl)-N-(2-phenylethyl)pyrrolo[3,2-b]quinoxaline-3-carboxamide], 37.5 µM.
Same read-out and setting: for `Cc1cccn2c(=O)c3cc(C(=O)NC(C)c4ccccc4)c(=N)n(CCCn4ccnc4)c3nc12` (stereo not given) [1-(3-imidazol-1-ylpropyl)-2-imino-10-methyl-5-oxo-N-(1-phenylethyl)dipyrido[3,4-c:1',2'-f]pyrimidine-3-carboxamide] the value was 17.4 µM.
Molecule `CC(C)n1c(=N)c(C(=O)NCCc2ccccc2)cc2c(=O)n3ccccc3nc21` [2-Imino-1-isopropyl-10-oxo-1,10-dihydro-2H-1,9,10a-triaza-anthracene-3-carboxylic acid phenethyl-amide] returned an EC50 above 45 µM.
For `CC(C)OCCCNC(=O)c1c(N)n(Cc2cccs2)c2nc3ccccc3nc12` [2-amino-N-(3-propan-2-yloxypropyl)-1-(thiophen-2-ylmethyl)pyrrolo[3,2-b]quinoxaline-3-carboxamide], the midpoint of the response under setting [1], the EC50, lay at 22.2 µM.
As for `CCCCC(=O)NC(Nc1nc(C2CC2)cs1)(C(=O)OCC)C(F)(F)F` (stereo not given) [2-[(4-cyclopropyl-2-thiazolyl)amino]-3,3,3-trifluoro-2-(1-oxopentylamino)propanoic acid ethyl ester], the EC50 was 9.87 µM. This lies in the single-digit micromolar range.
As for `COc1ccc(CCn2c(C)cc(C(=O)CSc3nnnn3C)c2C)cc1` [1-[1-[2-(4-methoxyphenyl)ethyl]-2,5-dimethyl-3-pyrrolyl]-2-[(1-methyl-5-tetrazolyl)thio]ethanone], the midpoint of the response under setting [1], the EC50, lay at 18.6 µM.
Turning to `CCCc1cc(C(=O)N(C2CCCCC2)C2CCCCC2)no1` [MLS000116372], the midpoint of the response, the EC50, lay at 2.7 µM. In other words, the single-digit micromolar range.
The molecule `Cc1ccc(-c2cc(-c3ccc(Cl)cc3)c(C#N)c(N)n2)o1` [2-azanyl-4-(4-chlorophenyl)-6-(5-methylfuran-2-yl)pyridine-3-carbonitrile] registered an EC50 above 45 µM.
`COCCCn1c(N)c(C(=O)NCCC(C)C)c2nc3ccccc3nc21` [MLS000041744] yielded an EC50 under setting [1] of 31.4 µM.
For the molecule `Cc1ccc(NC(=O)CC2Nc3ccccc3NC2=O)cc1Cl` (stereo not given) [N-(3-chloranyl-4-methyl-phenyl)-2-(3-oxidanylidene-2,4-dihydro-1H-quinoxalin-2-yl)ethanamide], it took 80.8 µM to reach a half-maximal effect under setting [1] (EC50). Compared with the last molecule, the EC50 is about 2.6-fold higher.
Same read-out and setting: with `O=c1c2ccccc2nnn1CSc1nnc(C2COc3ccccc3O2)n1-c1ccccc1` (stereo not given) [3-[[5-(2,3-dihydro-1,4-benzodioxin-3-yl)-4-phenyl-1,2,4-triazol-3-yl]sulfanylmethyl]-1,2,3-benzotriazin-4-one] the figure was 29.5 µM.
`Cc1cc(C)n(-c2nc(NCC(C)O)c3c4c(sc3n2)CCCC4)n1` (stereo not given) [1-[[2-(3,5-dimethyl-1-pyrazolyl)-5,6,7,8-tetrahydro-[1]benzothiolo[2,3-d]pyrimidin-4-yl]amino]-2-propanol]: a half-maximal response (EC50) required 7.79 µM. In other words, the single-digit micromolar range.

Values taken from BindingDB's records for doi:10.7270/Q2PZ576Z (The Scripps Research Institute Molecular Screening Center, 2007).
